Molecular target: human GPR34 (Homo sapiens, UniProt Q9UPC5)
Test: Reactivity of human GPR34CHO cell strain stably expressing Gα16 to lysophosphatidyl serine (FLIPR)
Assay type: cell-based
Design: expressed in transfected cells; host or cells: CHO cells (human GPR34CHO line) stably transfected with pCR3.1 human lung Gα16
Conditions: Fluo 3-AM, 3 minutes after addition; concentration-dependent
Method: The reactivity of the human GPR34CHO cell strain stably expressing Gα16 to lysophosphatidyl serine (lysoPS) was investigated by the FLIPR (Molecular Devices) assay method. The fluorescent calcium indicator Fluo 3-AM (Wako Pure Chemical) was incorporated into the human GPR34CHO cell strain stably expressing Gα16, and the cells were washed with assay buffer. Various concentrations of 50 μl lysophosphatidyl serine solution were added to cells immersed in 100 μl of assay buffer, and the intracellular fluorescent strength 3 minutes after addition was measured by FLIPR.

human GPR34, sequence (Q9UPC5 whole entry): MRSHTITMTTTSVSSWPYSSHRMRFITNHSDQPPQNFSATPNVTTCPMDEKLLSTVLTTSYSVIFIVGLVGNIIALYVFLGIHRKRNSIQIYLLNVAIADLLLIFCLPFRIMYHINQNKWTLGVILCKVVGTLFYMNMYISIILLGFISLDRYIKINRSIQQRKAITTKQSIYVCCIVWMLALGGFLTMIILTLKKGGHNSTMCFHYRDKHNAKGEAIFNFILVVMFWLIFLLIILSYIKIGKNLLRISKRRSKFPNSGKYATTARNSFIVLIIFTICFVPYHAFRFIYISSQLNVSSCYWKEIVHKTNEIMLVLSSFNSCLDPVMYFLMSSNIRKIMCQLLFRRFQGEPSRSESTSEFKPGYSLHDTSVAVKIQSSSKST

lysophosphatidyl serine
intracellular fluorescent strength (intracellular calcium), in words: caused a rise in intracellular fluorescent strength

From US20100130737A1, “Regulating Agent of GPR34 Receptor Function” (TAKEDA PHARMACEUTICAL COMPANY LIMITED, priority 2005, published 2010)
